Data set [1] deals with Mtb H37Rv. The data set can be described thus: Depletion of intracellular ATP (BacTiter Glo), Mtb on cholesterol. It is filed as cell-based, Mycobacterium tuberculosis. The settings on record: cholesterol as sole carbon source.
Data set [2] has as its system Mtb CDC1551. Nature of the data set: Extracellular Mtb growth on cholesterol, MABA MIC99. Format: cell-based, Mycobacterium tuberculosis. The settings on record: Mycobacterium tuberculosis, CDC1551, 336 h; cholesterol as sole carbon source; 2 weeks post-compound treatment; read-out: MABA-MIC99 (W2) CDC1551, cholesterol.
Data set [3] deals with Mtb H37Rv pATB45luc in THP-1 macrophages. The data set can be described thus: microbe, parasite or virus in culture. Format: cell-based. The settings on record: Mycobacterium tuberculosis, 120 h, 5 days post-compound treatment, mean ± SD n = 2, read-out: intracellular growth Mtb IC50.
The test system of data set [4] is Mtb CDC1551. Nature of the data set: Depletion of intracellular ATP, Mtb on glucose. Conditions: read-out: ATP IC50 (W1) CDC1551, glucose media; glucose as sole carbon source; 1 week.
Experimental: (Mtb) H37Rv or CDC1551 strains were grown in Middlebrook 7H9 broth medium (Difco) supplemented with 0.3 g/L casitone, 0.81 g/L NaCl, 0.05% (v/v) tyloxapol, and either 97 mg/L cholesterol, 4 g/L glucose, or 0.2% glycerol. For inhibitor assays, a 10-fold serial dilution of the test compounds was made in the desired medium in duplicate rows of a 96-well plate. Mtb cells were then added to all the wells at the final concentration of 1 × 10^4 CFU, and plates were incubated at 37 °C for up to 15 days. Minimum inhibitory concentrations (MIC99) were determined using the Microplate Alamar Blue Assay (MABA) on day 15.
BacTiter Glo reagent (Promega) was added to microtiter plates (1:10 dilution) and luminescence was recorded after 15 min of incubation at room temperature. […] Isoniazid or p-amino salicylic acid were used as positive control compounds for all experiments. Reported MIC and IC50 values are the mean of duplicate treatments.
For data set [5], the target named is T1, CYP125 (Mycobacterium tuberculosis, UniProt P9WPP1). The data set can be described thus: LC-MS substrate turnover assay (cholest-4-en-3-one). It is filed as biochemical. Conditions: for IC50: CYP125 0.5 μM, cholest-4-en-3-one 5 µM, LC-MS, read-out: CYP125A1 IC50; for Ki: estimated by Cheng-Prusoff, cholest-4-en-3-one Km CYP125 = 2.1 µM, read-out: CYP125A1 KI.
T1 sequence (P9WPP1 whole entry): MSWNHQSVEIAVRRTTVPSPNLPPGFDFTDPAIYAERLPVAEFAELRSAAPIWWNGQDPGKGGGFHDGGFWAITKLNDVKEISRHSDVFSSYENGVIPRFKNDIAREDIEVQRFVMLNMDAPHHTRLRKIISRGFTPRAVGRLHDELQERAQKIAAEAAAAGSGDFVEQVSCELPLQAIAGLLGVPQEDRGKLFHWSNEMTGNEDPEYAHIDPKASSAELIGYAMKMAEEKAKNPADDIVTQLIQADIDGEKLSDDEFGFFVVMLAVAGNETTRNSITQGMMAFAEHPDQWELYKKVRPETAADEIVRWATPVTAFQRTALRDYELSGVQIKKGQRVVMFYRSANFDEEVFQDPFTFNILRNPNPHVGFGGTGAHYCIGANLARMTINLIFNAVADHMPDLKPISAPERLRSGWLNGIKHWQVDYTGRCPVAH

Data set [6] has as its target T1, CYP125. The data set can be described thus: biochemical. It is filed as binding. Conditions: read-out: KD (μM) CYP125.
Data set [7] has as its system uninfected THP-1 macrophages. The data set can be described thus: THP-1 cytotoxicity (ATPLite). The settings on record: for THP-1 LD50: uninfected THP-1 macrophages, ATP-dependent luminescence, 5 days, top concentration 50 μM. (Cellular ATP, detected with luciferase, serves as a proxy for viable cell number.)
Data set [8] concerns Mtb H37Rv. The data set can be described thus: Extracellular Mtb growth on cholesterol, MABA MIC99. It is filed as cell-based, Mycobacterium tuberculosis. The settings on record: Mycobacterium tuberculosis, H37RV, 336 h; cholesterol as sole carbon source; 2 weeks post-compound treatment; read-out: MABA-MIC99 (W2) H37Rv, cholesterol. (Resazurin is reduced to fluorescent resorufin, in cell work by metabolically active cells.)

Another data set relates to Mtb (Erdman). The data set can be described thus: Extracellular Mtb (Erdman) growth on cholesterol-supplemented (0.01%) media, MABA. Format: cell-based, Mycobacterium tuberculosis. The settings on record: Mycobacterium tuberculosis, ERDMAN, 168 h, MABA 1 week post-compound treatment, mean ± SD n = 3, read-out: mixed media IC50 (Erdman).
Data set [9] concerns Mtb CDC1551. The data set can be described thus: Depletion of intracellular ATP (BacTiter Glo), Mtb on cholesterol. It is filed as cell-based. The settings on record: Mycobacterium tuberculosis, cholesterol as sole carbon source.
Another data set concerns the target T2, CYP1A (Homo sapiens, UniProt P05177).
T2 construct: from tissue; host or cells: human liver microsomes
T2 sequence (P05177 2-516 limits assumed): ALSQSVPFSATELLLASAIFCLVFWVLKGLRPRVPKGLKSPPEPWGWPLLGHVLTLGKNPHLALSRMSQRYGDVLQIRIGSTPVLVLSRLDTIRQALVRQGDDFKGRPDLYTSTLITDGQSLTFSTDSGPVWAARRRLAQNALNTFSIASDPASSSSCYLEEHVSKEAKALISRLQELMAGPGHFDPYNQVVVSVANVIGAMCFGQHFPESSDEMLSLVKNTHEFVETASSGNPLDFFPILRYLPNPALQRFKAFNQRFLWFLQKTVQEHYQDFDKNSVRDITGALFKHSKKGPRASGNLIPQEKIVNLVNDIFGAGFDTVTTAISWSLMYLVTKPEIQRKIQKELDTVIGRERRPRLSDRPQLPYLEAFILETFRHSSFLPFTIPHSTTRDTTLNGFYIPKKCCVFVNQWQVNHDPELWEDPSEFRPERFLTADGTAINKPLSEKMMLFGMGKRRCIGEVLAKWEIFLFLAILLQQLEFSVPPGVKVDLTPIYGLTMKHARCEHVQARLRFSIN
Nature of the data set: Inhibition of human liver microsomal P450s. It is filed as in vitro ADME. An excerpt:
(§1) Table S8. Inhibition of human liver microsomal P450s. Inhibition constants (IC 50 values, µM) of
(§2) following substrates: CYP1A-ethoxyresorufin, CYP2C19- mephenytoin, CYP2C9-tolbutamide, CYP2D6-
(§3) dextromethorphan, CYP3A4-midazolam/testosterone.
For orientation: Liver microsomes are vesicles of endoplasmic reticulum, rich in cytochrome P450 enzymes.

In the next data set the target is T3, CYP2C19 (Homo sapiens, UniProt P33261).
T3 construct: from tissue; host or cells: human liver microsomes
T3 sequence (P33261 whole entry): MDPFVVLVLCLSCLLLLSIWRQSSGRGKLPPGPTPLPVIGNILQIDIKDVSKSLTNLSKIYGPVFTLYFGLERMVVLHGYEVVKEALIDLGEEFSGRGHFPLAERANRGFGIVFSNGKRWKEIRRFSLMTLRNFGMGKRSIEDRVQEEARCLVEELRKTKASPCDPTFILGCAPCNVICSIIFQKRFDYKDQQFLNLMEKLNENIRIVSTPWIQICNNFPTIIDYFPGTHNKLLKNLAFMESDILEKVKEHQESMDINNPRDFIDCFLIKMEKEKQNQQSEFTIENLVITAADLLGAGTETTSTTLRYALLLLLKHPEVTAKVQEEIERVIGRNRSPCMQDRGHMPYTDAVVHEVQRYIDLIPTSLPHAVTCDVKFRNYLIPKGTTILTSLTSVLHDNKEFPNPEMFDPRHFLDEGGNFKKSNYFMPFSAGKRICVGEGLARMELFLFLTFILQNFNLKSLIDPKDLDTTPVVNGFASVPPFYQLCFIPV
The data set can be described thus: Inhibition of human liver microsomal P450s. Format: in vitro ADME.
Source text: as §1, §2, §3

The next data set addresses T4, CYP3A4 (Homo sapiens, UniProt P08684).
T4 construct: from tissue; host or cells: human liver microsomes
The data set can be described thus: Inhibition of human liver microsomal P450s. Format: in vitro ADME.
Source text: as §1, §2, §3

For a further data set, the target named is T5, CYP2D6 (Homo sapiens, UniProt P10635).
T5 construct: from tissue; host or cells: human liver microsomes
T5 sequence (P10635 whole entry): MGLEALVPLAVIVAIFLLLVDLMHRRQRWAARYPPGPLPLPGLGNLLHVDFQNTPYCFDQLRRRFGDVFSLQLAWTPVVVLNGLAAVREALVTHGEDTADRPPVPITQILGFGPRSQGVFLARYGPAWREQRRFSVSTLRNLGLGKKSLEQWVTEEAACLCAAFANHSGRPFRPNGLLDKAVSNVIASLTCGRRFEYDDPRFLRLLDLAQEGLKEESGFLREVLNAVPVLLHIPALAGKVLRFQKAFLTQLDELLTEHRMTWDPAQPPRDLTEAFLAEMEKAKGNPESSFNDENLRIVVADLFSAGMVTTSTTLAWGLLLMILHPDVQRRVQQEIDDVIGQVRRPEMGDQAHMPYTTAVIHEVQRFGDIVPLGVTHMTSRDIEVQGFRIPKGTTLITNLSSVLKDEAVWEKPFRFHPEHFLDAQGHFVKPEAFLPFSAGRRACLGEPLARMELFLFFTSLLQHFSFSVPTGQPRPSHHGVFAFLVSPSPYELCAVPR
The data set can be described thus: Inhibition of human liver microsomal P450s. Format: in vitro ADME.
Source text: as §1, §2, §3

A further data set has as its target T6, CYP2C9 (Homo sapiens, UniProt P11712).
T6 construct: from tissue; host or cells: human liver microsomes
The data set can be described thus: Inhibition of human liver microsomal P450s. It is filed as in vitro ADME.
Source text: as §1, §2, §3

The mark [10] stands for this setting: Mycobacterium tuberculosis, H37RV, 336 h, 2 weeks post-compound treatment, read-out: ATP-IC50 (W2) H37Rv, cholesterol.
[11] abbreviates: CDC1551, 168 h, 1 week post-compound treatment, read-out: ATP-IC50 (W1) CDC1551, cholesterol.
The mark [12] stands for this setting: CDC1551, 336 h, 2 weeks post-compound treatment, read-out: ATP-IC50 (W2) CDC1551, cholesterol.
Setting [13] is: CYP3A4 IC50 (midazolam), substrate midazolam (first value of cell).
The mark [14] stands for this setting: CYP3A4 IC50 (testosterone), substrate testosterone (second value of cell).

The structures appear in SMILES notation. Values after ≈ are worked out from the molar mass of the structure shown. Like-named read-outs stand apart in the source and are kept apart here.

This is an account of results in PMC12305662, “Fragment-Based Development of Small Molecule Inhibitors Targeting Mycobacterium tuberculosis Cholesterol Metabolism” (Journal of Medicinal Chemistry, 2025).

T4 sequence (P08684 whole entry): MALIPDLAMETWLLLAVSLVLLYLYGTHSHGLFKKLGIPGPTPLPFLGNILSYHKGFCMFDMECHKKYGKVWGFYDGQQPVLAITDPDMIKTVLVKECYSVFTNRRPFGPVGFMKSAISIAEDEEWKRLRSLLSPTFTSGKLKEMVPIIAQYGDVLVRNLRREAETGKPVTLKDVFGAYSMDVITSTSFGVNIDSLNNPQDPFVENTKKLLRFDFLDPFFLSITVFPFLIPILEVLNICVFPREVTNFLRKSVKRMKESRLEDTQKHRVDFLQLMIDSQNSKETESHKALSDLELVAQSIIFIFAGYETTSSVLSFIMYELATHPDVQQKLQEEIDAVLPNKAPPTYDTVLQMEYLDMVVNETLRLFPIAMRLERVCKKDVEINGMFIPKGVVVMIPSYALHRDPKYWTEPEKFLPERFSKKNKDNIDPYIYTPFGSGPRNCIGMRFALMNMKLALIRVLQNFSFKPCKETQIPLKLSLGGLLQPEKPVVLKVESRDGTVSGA
T6 sequence (P11712 whole entry): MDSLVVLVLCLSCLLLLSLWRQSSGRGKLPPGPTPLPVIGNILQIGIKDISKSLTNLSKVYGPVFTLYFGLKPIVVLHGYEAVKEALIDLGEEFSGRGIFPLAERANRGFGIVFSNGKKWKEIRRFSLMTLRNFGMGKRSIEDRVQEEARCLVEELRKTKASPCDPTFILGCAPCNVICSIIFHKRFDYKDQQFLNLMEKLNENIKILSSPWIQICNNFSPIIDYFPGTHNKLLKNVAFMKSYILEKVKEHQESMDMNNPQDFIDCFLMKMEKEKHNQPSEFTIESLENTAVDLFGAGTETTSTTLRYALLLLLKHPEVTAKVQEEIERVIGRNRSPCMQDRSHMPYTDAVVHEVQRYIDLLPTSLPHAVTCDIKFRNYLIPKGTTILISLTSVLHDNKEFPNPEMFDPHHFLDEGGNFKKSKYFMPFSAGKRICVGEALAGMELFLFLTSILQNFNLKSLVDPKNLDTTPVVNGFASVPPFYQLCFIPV

For the compound `O=S(=O)(Nc1ccc(Cc2ccncc2)cc1)c1ccc(OC(F)(F)F)cc1` [5k, N-(4-(Pyridin-4-ylmethyl)phenyl)-4-(trifluoromethoxy)benzenesulfonamide], the IC50 (in general, the concentration needed to halve the response being measured) with Mtb H37Rv [1] (setting [10]) is 2300 nM; in data set [3], 13000 ± 180 nM; with Mtb CDC1551 [4], 19000 nM; on CYP125 [5], 910 ± 220 nM; in the data set with Mtb (Erdman), 22000 ± 2000 nM; in the data set with Mtb CDC1551 [9] (setting [11]) it was 1200 nM. The half-maximal inhibitory concentration (IC50) in the data set on Mtb CDC1551 [9] (setting [12]) came out at 9400 nM; against CYP1A, 5950 nM; on CYP2C19, 3100 nM; on CYP3A4 (setting [13]), 260 nM; against CYP3A4 (setting [14]), 1250 nM; against CYP2D6 it was 180 nM. At CYP2C9, this compound showed a half-maximal inhibitory concentration (IC50) of 5270 nM. The MIC99 with Mtb CDC1551 [2] and in the data set on Mtb H37Rv [8] was 25 µM (≈ 10.2 µg/mL) in each case. Further, the Ki (as a rule, a dissociation constant, usually derived from enzyme kinetics or from competition with a known ligand) at CYP125 [5] is 270 nM. The Kd (usually a measure of binding affinity in units of concentration) on CYP125 [6] is 0.55 ± 0.12 µM. The “THP-1 LD50” value in data set [7] is 32 µM.

Take `O=C(Nc1ccc(Cc2ccncc2)cc1)[C@H](Cc1c[nH]c2ccccc12)NCc1ccccc1` [5d, (S)-2-(Benzylamino)-3-(1H-indol-3-yl)-N-(4-(pyridin-4-ylmethyl)phenyl)propanamide]: the IC50 was 4700 nM in the data set with Mtb H37Rv [1] (Mycobacterium tuberculosis, H37RV, 168 h, 1 week post-compound treatment, read-out: ATP-IC50 (W1) H37Rv, cholesterol); 4700 nM with Mtb H37Rv [1] (setting [10]); less than 5000 nM in the data set with Mtb H37Rv [1] (1 week post-compound treatment, read-out: ATP-IC50 (W1) H37Rv, cholesterol); 2800 ± 200 nM in [3]; 19000 nM in the data set on Mtb CDC1551 [4]; 790 ± 90 nM at CYP125 [5]. Besides, the half-maximal inhibitory concentration (IC50) in the data set on Mtb (Erdman) was 18000 ± 3000 nM; in the data set with Mtb CDC1551 [9] (setting [11]), 4700 nM; with Mtb CDC1551 [9] (setting [12]), 38000 nM; at CYP1A, 110 nM; against CYP2C19 it was less than 100 nM; against CYP3A4 (setting [13]), 520 nM. Moreover, the 50% inhibitory concentration (IC50) on CYP3A4 (setting [14]) is 1490 nM; on CYP2D6, 460 nM; on CYP2C9 it was 140 nM. Also, the MIC99 in the data set on Mtb CDC1551 [2] and with Mtb H37Rv [8] was 25 µM (≈ 11.5 µg/mL) in each case. Besides, at CYP125 [5], the Ki was 230 nM. Moreover, the Kd on CYP125 [6] stood at 0.072 ± 0.026 µM. Also, the “THP-1 cytotoxicity in words” value in data set [7] (concentrations up to 50 μM) is given as “weakly cytotoxic”. The “THP-1 LD50” value in data set [7] came to 45 µM.
